Measured values taken from patent publication US20230021483A1, “[…] […] METHOD AND CLASSIFICATION OF PHARMACEUTICAL COMPONENTS BY USING TRANSCRIPTOMES” (National Institutes of Biomedical Innovation, Health and …, priority 2016, published 2023).

System: preferentially upregulated genes in LV, SP, LN
Test: Z-score-based differential gene expression analysis (adjuvant group- or adjuvant-associated genes, 40 module mapping, TargetMine annotation)
Assay type: in vivo, C57BL/6 mice
Conditions: ID, LV
Source text: Each sample's FC value was converted into a z-score on a gene basis by using the entire data set for each organ. The Z-score of the triplicates of interest were summed for each adjuvant. For example, the three sample z-score in the LV sample following cdiGMP administration was summed on a gene-by-gene basis, after which the summed scores of >3 genes were selected as relatively preferentially expressed genes in the LV after cdiGMP administration. The following threshold was applied for selections. […] G2^LV: ALM_IP(z>1) & bCD(z>1) & ENDCN(z>1) & FCA(z>1). […] G4^LV: MALP2s(z>3). […] G2^SP: ENDCN_x2+ENDCN_x3(z>2) & ALM_IP(z>3) & bCD(z>3). […] G4^SP: ADX_ID_x2+ADX_ID_x3(z>2) & ADX_IP(z>3) & MALP2s(z>3). […] G2^LN: bCD(z>3) & FCA(z>3). […] G5^LN: K3(z>1.5) & K3SPG_x1+K3SPG_x2(z>1) & D35_x1+D35_x3(z>1). G6^LN: AddaVax(z>3).

## Poly_IC
Sample x1
  Adar 1425405_a_at (Group G1, Modules 20): 3.45
  Adar 1434268_at (Group G1, Modules 20): 2.82
  Ddx58 1436562_at (Group G1, Modules 20): 2.92
  Ddx58 1456890_at (Group G1, Modules 20): 3.02
  Eif2ak2 1422005_at (Group G1, Modules 20): 2.89
  G3bp2 1421323_a_at (Group G1, Modules 20): 2.83
  Gm9706///Isg15 1431591_s_at (Group G1, Modules 20): 3.28
  H2-T10///H2-T22///H2-T9 1449875_s_at (Group G1, Modules 20): 2.89
  Ifih1 1426276_at (Group G1, Modules 20): 3.06
  Ifit1 1450783_at (Group G1, Modules 20): 2.54
  Ifit3 1449025_at (Group G1, Modules 20): 3.24
  Irf7 1417244_a_at (Group G1, Modules 20): 3.53
  Irgm1 1418825_at (Group G1, Modules 20): 2.78
  Mndal 1426906_at (Group G1, Modules 20): 3.14
  Pml 1448757_at (Group G1, Modules 20): 3.58
  Pml 1456103_at (Group G1, Modules 20): 3.26
  Rnf213 1455500_at (Group G1, Modules 20): 2.64
  Rsad2 1436058_at (Group G1, Modules 20): 3
  Shisa5 1423986_a_at (Group G1, Modules 20): 2.5
  Shisa5 1437503_a_at (Group G1, Modules 20): 2.49
  Stat1 1450033_a_at (Group G1, Modules 20): 2.73
  Stat1 1450034_at (Group G1, Modules 20): 2.89
  Tdrd7 1426716_at (Group G1, Modules 20): 3.28
  Tor1aip2 1418115_s_at (Group G1, Modules 20): 2.38
  Tor1aip2 1418116_at (Group G1, Modules 20): 2.73
  Tor1aip2 1435526_at (Group G1, Modules 20): 2.88
  Trim12a 1437432_a_at (Group G1, Modules 20): 3.39
  Uba7 1426970_a_at (Group G1, Modules 20): 3
Sample x2
  Adar 1425405_a_at (Group G1, Modules 20): 2.75
  Adar 1434268_at (Group G1, Modules 20): 2.17
  Ddx58 1436562_at (Group G1, Modules 20): 2.82
  Ddx58 1456890_at (Group G1, Modules 20): 2.77
  Eif2ak2 1422005_at (Group G1, Modules 20): 2.87
  G3bp2 1421323_a_at (Group G1, Modules 20): 2.85
  Gm9706///Isg15 1431591_s_at (Group G1, Modules 20): 3.62
  H2-T10///H2-T22///H2-T9 1449875_s_at (Group G1, Modules 20): 3.28
  Ifih1 1426276_at (Group G1, Modules 20): 3.34
  Ifit1 1450783_at (Group G1, Modules 20): 2.35
  Ifit3 1449025_at (Group G1, Modules 20): 3.25
  Irf7 1417244_a_at (Group G1, Modules 20): 3.38
  Irgm1 1418825_at (Group G1, Modules 20): 2.84
  Mndal 1426906_at (Group G1, Modules 20): 2.4
  Pml 1448757_at (Group G1, Modules 20): 3.3
  Pml 1456103_at (Group G1, Modules 20): 2.5
  Rnf213 1455500_at (Group G1, Modules 20): 3.01
  Rsad2 1436058_at (Group G1, Modules 20): 3.3
  Shisa5 1423986_a_at (Group G1, Modules 20): 2.99
  Shisa5 1437503_a_at (Group G1, Modules 20): 2.66
  Stat1 1450033_a_at (Group G1, Modules 20): 2.67
  Stat1 1450034_at (Group G1, Modules 20): 3.04
  Tdrd7 1426716_at (Group G1, Modules 20): 3.24
  Tor1aip2 1418115_s_at (Group G1, Modules 20): 2.68
  Tor1aip2 1418116_at (Group G1, Modules 20): 2.94
  Tor1aip2 1435526_at (Group G1, Modules 20): 2.62
  Trim12a 1437432_a_at (Group G1, Modules 20): 3.59
  Uba7 1426970_a_at (Group G1, Modules 20): 3.13
Sample x3
  Adar 1425405_a_at (Group G1, Modules 20): 1.58
  Adar 1434268_at (Group G1, Modules 20): 1.28
  Ddx58 1436562_at (Group G1, Modules 20): 1.64
  Ddx58 1456890_at (Group G1, Modules 20): 1.87
  Eif2ak2 1422005_at (Group G1, Modules 20): 1.83
  G3bp2 1421323_a_at (Group G1, Modules 20): 1.31
  Gm9706///Isg15 1431591_s_at (Group G1, Modules 20): 2.13
  H2-T10///H2-T22///H2-T9 1449875_s_at (Group G1, Modules 20): 2.21
  Ifih1 1426276_at (Group G1, Modules 20): 2.12
  Ifit1 1450783_at (Group G1, Modules 20): 1.28
  Ifit3 1449025_at (Group G1, Modules 20): 1.95
  Irf7 1417244_a_at (Group G1, Modules 20): 2.38
  Irgm1 1418825_at (Group G1, Modules 20): 1.84
  Mndal 1426906_at (Group G1, Modules 20): 2.37
  Pml 1448757_at (Group G1, Modules 20): 2
  Pml 1456103_at (Group G1, Modules 20): 2.12
  Rnf213 1455500_at (Group G1, Modules 20): 1.47
  Rsad2 1436058_at (Group G1, Modules 20): 1.97
  Shisa5 1423986_a_at (Group G1, Modules 20): 1.61
  Shisa5 1437503_a_at (Group G1, Modules 20): 1.52
  Stat1 1450033_a_at (Group G1, Modules 20): 1.92
  Stat1 1450034_at (Group G1, Modules 20): 1.94
  Tdrd7 1426716_at (Group G1, Modules 20): 1.44
  Tor1aip2 1418115_s_at (Group G1, Modules 20): 1.13
  Tor1aip2 1418116_at (Group G1, Modules 20): 0.96
  Tor1aip2 1435526_at (Group G1, Modules 20): 1.58
  Trim12a 1437432_a_at (Group G1, Modules 20): 2.9
  Uba7 1426970_a_at (Group G1, Modules 20): 1.71
